Experimental data as given in PMC1978517, “Novel Decapeptides that Bind Avidly and Deliver Radioisotope to Colon Cancer Cells” (PLoS ONE, 2007).

Experiments:
Caco-2 cells = assay: Release and retention of 32P counts after washing and further incubation in complete medium; type: cell-based
Protocol: (§1) The peptide binding, washing and assay experiment described for Figure 2 was then repeated in the seven most avidly binding cell lines using MA5, except that after three washes of medium, 200 ul of complete medium was added to each well and the cells were incubated overnight at 37°C. […] Approximately 88% of MA5 radioactive counts initially retained by the colon cancer cell lines was released into the medium, while approximately 12% of initially retained radioactive counts were retained by cells. The two esophageal cell lines that originally retained large amounts of radioactive counts, QH-TRT and SEG1, retained 39% and 37% of their original counts, respectively, after overnight incubation. Caco-2 cells retained the greatest number of counts, averaging 58,305 cpm in triplicate wells containing 10,000 cells each. This figure represents approximately 5.8 cpm, or 348 counts per hour, per cell (i.e., when extrapolated over a potential 2-week exposure period, equivalent to over 87,000 counts per cell).

[1] = system: Caco-2 colon adenocarcinoma cell line
Protocol: (§2) Assay of the binding of ^32P-labeled decapeptides to cell lines: Cell lines were grown in complete medium containing 10% bovine fetal serum (heat inactivated). In each well of a 96-well plate, 10,000 cells from various cell lines were grown overnight in complete medium. Ten µl of the labeled-peptide in 1 X PBS and 90 µl of complete medium were added to each well and incubated at 37°C at various times of up to two hours. The peptide-medium was removed and one µl added to 100 ul gel loading buffer and counted by scintillation counting for the probe control or run on a polyacrylamide-SDS gel (Biorad).The adherent cells were briefly and gently washed with complete medium three times and some wells were assayed immediately by adding 100 µl of gel loading buffer to each well and run on a gel or counted in a scintillation counter. Other wells had 100 µl complete medium added and incubated for a further time period. Samples were either counted in a liquid scintillation counter or run on polyacrylamide-SDS gels, exposed to x-ray film, and the film developed.

colon cancer cell lines = assay: Release and retention of 32P counts after washing and overnight incubation in complete medium; type: cell-based; settings: two hour incubation, three washes
Protocol: as §1

[2] = system: QH-TRT Barrett's esophagus cell line; assay: as above; type: cell-based; settings: two hour incubation, three washes, overnight at 37°C in complete medium
Protocol: as §1

[3] = system: SEG1 esophageal adenocarcinoma cell line; assay: as above; type: cell-based; settings: two hour incubation, three washes, overnight at 37°C in complete medium
Protocol: as §1

[4] = system: seven avidly binding cell lines; assay: as above; type: cell-based; settings: all seven avidly binding lines
Protocol: as §1

[5] = system: eleven nonbinding cell lines (HeLa S3, RKO, 1271, A549, KYSE-70, HT1080, 293H, 1459, HEEpiC, T84, SK-BR-3); assay: Binding of 32P-labeled decapeptide to cell lines, two hour incubation, scintillation counting; type: cell-based
Protocol: as §2

[6] = system: seven avidly binding cell lines (Caco-2, HCT15, HCT116, LoVo, HT29, SEG1, QHTRT); assay: as above; type: cell-based; settings: two hour incubation with 32P-labeled peptide, seven of the eighteen cell lines
Protocol: as §2

[7] = two hours incubation, three wash steps, overnight incubation in medium
[8] = two hour incubation, three washes, 10,000 cells

GSRRASVASA [MA5]
time course of release of counts (in words) (Caco-2 cells; 48-hour time period after two hour incubation and washing, triplicate determinations): majority of the total counts released over the 48 hour time period are released by nine hours of incubation | counts retained by cells after overnight incubation (Caco-2 cells; average of triplicate wells containing 10,000 cells each, two hour incubation, washes, overnight in medium): 58,305 cpm | counts per cell extrapolated over a potential 2-week exposure period (Caco-2 cells; extrapolated): over 87,000 counts per cell | counts per cell per day, extrapolated (Caco-2 cells; extrapolated from 5.8 cpm per cell): over 8,300 counts per cell per day | originally retained 32P isotope released (Caco-2 cells; [7]): 88% | originally retained 32P isotope retained by cells (Caco-2 cells; [7]): 12% | ratio of cpm retained by Caco-2 to the average of the eleven nonbinding cell lines ([1]; Caco-2): 818 | share of the total radioactive counts present in the incubation well retained by cells ([1]; after two-hour incubation): approximately 18% | radioactive dose transferred per cell ([1]; two hour incubation, wash, immediate determination of retained radioactivity): over 29 counts per minute per cell | retention difference between variants (MA2 vs MA5) ([1]; two hours' incubation, counts bound as percentage of total counts): 70 fold | radioactive counts initially retained that were released into the medium (colon cancer cell lines; 200 ul complete medium, overnight at 37°C): Approximately 88% | initially retained radioactive counts retained by cells (colon cancer cell lines; overnight at 37°C in complete medium): approximately 12% | original counts retained after overnight incubation [2]: 39% | original counts retained after overnight incubation [3]: 37% | radioactivity released after an overnight incubation [4]: 63% to 88 | binding (in words) ([5]; two hour incubation with 32P-labeled peptide, eleven of eighteen cell lines): did not bind | average 32P counts bound, remaining eleven cell lines along with one blank well [5, 8]: 365 cpm | mean values of 32P counts bound, blank wells and nonbinding cell lines [5, 8]: less than 550 cpm | retention of radioactivity (in words) [6]: very strong retention of radioactivity
